Measured values from ChEMBL document CHEMBL1201862, “PubChem BioAssay data set” (2004).
Activity calls are given as the source filed them.

Assays:
[1] = biological target: T1, Histone-lysine N-methyltransferase NSD2 (Homo sapiens, UniProt O96028); assay type: biochemical
T1 sequence (O96028 whole entry): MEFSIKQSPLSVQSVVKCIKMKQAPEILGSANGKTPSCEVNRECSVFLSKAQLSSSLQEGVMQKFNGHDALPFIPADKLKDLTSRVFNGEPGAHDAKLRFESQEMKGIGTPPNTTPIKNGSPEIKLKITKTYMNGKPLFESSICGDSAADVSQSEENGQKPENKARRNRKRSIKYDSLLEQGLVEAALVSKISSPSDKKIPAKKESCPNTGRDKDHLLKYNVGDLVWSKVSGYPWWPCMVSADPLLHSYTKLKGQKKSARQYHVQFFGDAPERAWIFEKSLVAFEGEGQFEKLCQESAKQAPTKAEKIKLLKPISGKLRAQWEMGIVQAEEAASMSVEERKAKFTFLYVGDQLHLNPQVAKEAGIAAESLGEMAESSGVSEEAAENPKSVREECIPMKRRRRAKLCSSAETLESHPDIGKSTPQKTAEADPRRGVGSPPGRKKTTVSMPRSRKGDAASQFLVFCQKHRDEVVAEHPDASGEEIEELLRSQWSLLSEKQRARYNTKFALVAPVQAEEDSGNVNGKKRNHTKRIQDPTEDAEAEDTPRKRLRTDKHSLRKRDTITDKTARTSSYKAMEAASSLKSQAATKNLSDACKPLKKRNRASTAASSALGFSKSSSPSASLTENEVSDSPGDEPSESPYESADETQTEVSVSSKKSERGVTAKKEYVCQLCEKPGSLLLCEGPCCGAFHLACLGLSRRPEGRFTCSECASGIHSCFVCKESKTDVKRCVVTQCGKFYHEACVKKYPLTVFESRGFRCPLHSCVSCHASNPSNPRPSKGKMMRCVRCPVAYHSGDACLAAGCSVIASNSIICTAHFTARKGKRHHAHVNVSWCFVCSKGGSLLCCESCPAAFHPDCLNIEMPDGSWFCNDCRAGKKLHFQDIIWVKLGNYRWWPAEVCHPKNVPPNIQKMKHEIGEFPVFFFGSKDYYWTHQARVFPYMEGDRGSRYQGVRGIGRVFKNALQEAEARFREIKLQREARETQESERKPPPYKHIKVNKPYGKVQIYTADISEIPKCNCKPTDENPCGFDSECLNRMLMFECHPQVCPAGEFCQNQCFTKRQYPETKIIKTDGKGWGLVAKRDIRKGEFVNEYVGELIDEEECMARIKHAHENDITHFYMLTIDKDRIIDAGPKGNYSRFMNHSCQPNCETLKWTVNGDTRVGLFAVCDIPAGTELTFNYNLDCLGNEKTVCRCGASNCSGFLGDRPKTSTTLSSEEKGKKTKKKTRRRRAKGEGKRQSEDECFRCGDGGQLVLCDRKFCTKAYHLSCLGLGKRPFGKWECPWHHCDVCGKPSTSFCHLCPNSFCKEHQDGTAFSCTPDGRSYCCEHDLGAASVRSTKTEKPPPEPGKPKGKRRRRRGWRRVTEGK

[2] = biological target: T2, Sentrin-specific protease 8 (Homo sapiens, UniProt Q96LD8); assay type: functional;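 also: luminescence read-out of SENP8 inhibition, dose-response confirmation following an ultra-high-throughput screen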
T2 sequence (Q96LD8 whole entry): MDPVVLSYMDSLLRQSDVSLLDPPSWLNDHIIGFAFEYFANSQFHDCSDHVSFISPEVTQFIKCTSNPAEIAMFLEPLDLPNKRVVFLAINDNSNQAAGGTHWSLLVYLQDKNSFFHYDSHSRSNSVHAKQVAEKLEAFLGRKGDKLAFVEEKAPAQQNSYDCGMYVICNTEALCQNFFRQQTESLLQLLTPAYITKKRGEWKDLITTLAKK

[3] = cytotoxicity in HEK-293T cells, dose response, cytotoxicity control for BCR NF-kB inhibitor project, luminescence, B-cell screen hits (AID 489021); assay type: functional, cell-based;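 also: HEK-293T cells carrying an NF-kB luciferase reporter; cells exposed to compound for about 14 hours before viability readout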
[4] = biological target: T3, Apoptotic protease-activating factor 1 (Homo sapiens, UniProt O14727); assay type: functional
T3 sequence (O14727 whole entry): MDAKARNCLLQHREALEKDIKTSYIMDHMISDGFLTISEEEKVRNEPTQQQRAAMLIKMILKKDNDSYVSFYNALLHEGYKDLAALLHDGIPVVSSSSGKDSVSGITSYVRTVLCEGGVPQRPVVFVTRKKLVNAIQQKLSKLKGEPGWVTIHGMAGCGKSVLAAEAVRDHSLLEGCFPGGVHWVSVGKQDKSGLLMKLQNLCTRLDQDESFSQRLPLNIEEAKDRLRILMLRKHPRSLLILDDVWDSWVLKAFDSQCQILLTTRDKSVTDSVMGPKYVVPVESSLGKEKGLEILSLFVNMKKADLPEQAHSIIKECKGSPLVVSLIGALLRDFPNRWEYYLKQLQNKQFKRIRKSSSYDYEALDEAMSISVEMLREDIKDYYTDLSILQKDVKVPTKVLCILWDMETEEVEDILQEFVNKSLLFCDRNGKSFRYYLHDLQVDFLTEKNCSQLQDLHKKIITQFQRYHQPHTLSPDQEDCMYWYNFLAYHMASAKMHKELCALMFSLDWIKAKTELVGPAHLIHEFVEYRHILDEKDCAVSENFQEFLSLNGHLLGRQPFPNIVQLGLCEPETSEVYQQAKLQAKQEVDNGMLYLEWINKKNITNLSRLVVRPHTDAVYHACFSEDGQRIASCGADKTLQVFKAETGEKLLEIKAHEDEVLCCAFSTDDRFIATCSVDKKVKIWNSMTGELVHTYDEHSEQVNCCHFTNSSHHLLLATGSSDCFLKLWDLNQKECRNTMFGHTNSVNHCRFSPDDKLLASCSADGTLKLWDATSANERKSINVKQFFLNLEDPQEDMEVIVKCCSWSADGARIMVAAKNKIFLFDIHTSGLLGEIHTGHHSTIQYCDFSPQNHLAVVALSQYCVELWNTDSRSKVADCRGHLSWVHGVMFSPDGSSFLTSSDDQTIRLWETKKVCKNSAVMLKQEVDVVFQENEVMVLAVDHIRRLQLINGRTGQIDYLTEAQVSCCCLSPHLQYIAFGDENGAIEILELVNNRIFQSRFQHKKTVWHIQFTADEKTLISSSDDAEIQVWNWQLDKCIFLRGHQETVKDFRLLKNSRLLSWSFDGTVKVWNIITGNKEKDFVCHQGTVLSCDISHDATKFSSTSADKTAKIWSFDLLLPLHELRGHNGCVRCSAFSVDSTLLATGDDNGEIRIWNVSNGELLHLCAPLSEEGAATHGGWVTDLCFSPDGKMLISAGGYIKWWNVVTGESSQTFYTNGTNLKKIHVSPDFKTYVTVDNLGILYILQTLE

Compound | AC50 [1] | IC50 [2] | IC50 [3] | IC50 [4]
CC1CC(C)CN(C(=O)c2ccc3c(c2NCCO)C(=O)c2ccccc2C3=O)C1 (centres undefined) | 19.3 µM (active) | – | – | –
CCC(=O)N(C1=C(NC)C(=O)c2ccccc2C1=O)C(C)C | – | 25 µM (active) | > 80 µM (inactive) | 20.8 µM (active)
